In US20170246267A1, “CHOLINERGIC ANTAGONISM AS AN ADJUNCT TO CANCER THERAPY” (The Trustees of Columbia University in the City of New York, priority 2014, published 2017):
Entries after “also recorded” stand apart in the source; their conditions may differ. Starred links: 1 amine or outer side, 2 acyl side, 3 side chain; linkers in the order of their positions; H or OH if unused. Positions of bridges follow the written chain, without caps; N, C: chain ends. Non-standard residues stand in square brackets, D forms with d. Residues, ends and D or L forms follow the SMILES beside them. X1 = CC(=O)NC(C(=O)OC(C(C)C)C(N[*:1])C(=O)[*:2])C(O)C(C)C; PhLac = O=C(O)[CH](O)Cc1ccccc1; NMeT = CN[CH](C(=O)O)[CH](C)O; NMeA = CN[CH](C)C(=O)O; NMeDha = C=C(NC)C(=O)O

Legend:
INS-GAS mice [1] = details: mouse, in vivo
[2] = tested on: TMK1 gastric cancer cell line; assay: YAP immunoblotting in TMK1 gastric cancer cell line; format: cell-based, human; design: changes of YAP phosphorylation after carbachol stimulation: dose or concentration left out as unconfirmed
Method: (§1) Similarly, carbachol treatment in Apc-deleted gastric organoids reduced the level of phosphorylated YAP (FIG. 51G). […] Next a human M3R gene-expressing construct was transfected into the M3R-negative AGS cell line. Overexpression of M3R decreased the level of phosphorylated YAP in a Gq-dependent manner, and activated the transcriptional activity of YAP in a luciferase assay (Dupont et al., 2011) (FIGS. 45B, 45C, and 52A).
(§2) Protein lysates were prepared from cells, separated by sodium dodecyl sulfate-polyacrylamide gel electrophoresis (SDS-PAGE), transferred to polyvinylidene difluoride membranes (Millipore). The membrane was probed with primary antibodies (phospho-YAP (Cell Signaling, 1:1000), YAP (Cell Signaling, 1:1000, and β-actin (Sigma, 1:5000) antibodies), and then incubated with the secondary antibody. Immunocomplexes were detected using the enhanced chemiluminescence system (Amersham Biosciences).
(§3) The human cancer cell lines were cultured in RPMI, DMEM, or Ham's F-12 medium supplemented with 10% fetal bovine serum, as described previously (Hayakawa et al., 2011).

[3] = tested on: Dclk1-CreERT; R26-DTA mice; details: mouse, in vivo
DSS-colitis = assay: Bethanechol in drinking water in DSS-colitis; format: in vivo, mouse
[4] = Bethanechol and response to 15 Gy abdominal irradiation (AIR); format: in vivo, mouse
gastric organoids [5] = assay: Ngf expression in cultured gastric organoids treated with carbachol; format: cell-based, mouse
Excerpt: In mouse gastric tumors, there was also a specific upregulation of Ngf (almost 20 times higher expression than the normal stomach), and such upregulation was not observed in any other neurotrophins (FIG. 40B). Similar upregulation of Ngf was found in mouse colorectal tumors induced by azoxymethane (AOM) and dextran sodium sulfate (DSS) (FIG. 47B). […] Immunostaining and in situ hybridization confirmed that NGF was expressed within the neoplastic epithelium rather than the stromal compartment (FIGS. 40D and 47C), a finding confirmed by cell sorting and subsequent qPCR (FIGS. 40E and 40F). MNU tumor-derived organoids that are cultured in isolation, separated from their native microenvironment, lost Ngf expression within 7 days. […] Therefore, ACh production, possibly from tuft cells initially but later from innervated nerves with axonogenesis, is at least partly responsible for the neoplastic upregulation of NGF.
The harvested mouse stomachs were opened longitudinally and washed with cold PBS. The tissue was chopped into approximately 5 mm pieces, washed with cold PBS, and incubated in 8 mM EDTA in PBS for 60 minutes on ice. The tissue fragments were suspended vigorously in cold 10% FBS using a 10-mL pipette, yielding supernatants enriched in crypts. Gland fractions were centrifuged at 900 rpm for 6 minutes at 4° C. and diluted with advanced DMEM/F12 (Invitrogen) containing B27, N2, 1 μM n-Acetylcysteine, 10 mM HEPES, penicillin/streptomycin, and Glutamax (all from Invitrogen). […]
Total RNA was extracted from whole stomach samples from each animal using TRIzol reagent (Invitrogen) or the RNAqueous-micro kit (Ambion) and subjected to first-strand complementary DNA synthesis using the Superscript III cDNA Amplification System (Invitrogen) following the manufacturer's instructions. qRT-PCR was performed using a three-step method, an ABI 7300 system and SYBR green (Roche). […] The results were expressed as the copy number of each gene relative to that of Gapdh or GAPDH.

[6] = tested on: Apc-deleted gastric organoids; assay: YAP immunoblotting in Apc-deleted gastric organoids treated with carbachol; format: cell-based, mouse; details: 1 mM carbachol for 7 days
Excerpt: as §1
The harvested mouse stomachs were opened longitudinally and washed with cold PBS. The tissue was chopped into approximately 5 mm pieces, washed with cold PBS, and incubated in 8 mM EDTA in PBS for 60 minutes on ice. The tissue fragments were suspended vigorously in cold 10% FBS using a 10-mL pipette, yielding supernatants enriched in crypts. […]
as §2

human cancer cells = assay: NGF expression in human cancer cells treated with carbachol; format: cell-based; details: TMK-1 cells, 10 mM carbachol for 24 hours
Excerpt: as §1
Total RNA was extracted from whole stomach samples from each animal using TRIzol reagent (Invitrogen) or the RNAqueous-micro kit (Ambion) and subjected to first-strand complementary DNA synthesis using the Superscript III cDNA Amplification System (Invitrogen) following the manufacturer's instructions. qRT-PCR was performed using a three-step method, an ABI 7300 system and SYBR green (Roche). The qRT-PCR primer sequences are available upon request. The results were expressed as the copy number of each gene relative to that of Gapdh or GAPDH.
as §3

INS-GAS mice [7] = details: mouse, in vivo; remark: listed apart in the source
[8] = tested on: small cell lung cancer xenografts; details: reference 50; cited from earlier work
gastric organoids [9] = assay: In vitro gastric organoid culture with or without neuron co-culture: organoid growth; format: cell-based, mouse
gastric organoids [10] = assay: Stem cell marker / Wnt target gene expression in gastric organoids (qRT-PCR); format: cell-based, mouse
[11] = after knockout of tuft cells, bethanechol in the drinking water

Molecule: O=c1[nH]cc(F)c(=O)[nH]1 [5-FU, 5-Fluorouracil]
- tumor size (INS-GAS mice [1]): no effect

Molecule: C=C1C(=O)NC(C)C(=O)N(C)C(C)C(=O)NC(C(OC(=O)C(NC(C)=O)C(O)C(C)C)C(C)C)C(=O)N(C)C(C(C)OC)C(=O)OC(C)C(NC(C)=O)C(=O)OC(Cc2ccccc2)C(=O)N1C (centres unmarked) [YM254890] (Ac-T[PhLac][NMeDha]A[NMeA][X1][NMeT](Me); ester 1-C; configuration not given here)
- changes of YAP phosphorylation after carbachol stimulation ([2]; pretreated with YM254890): blocked

Molecule: CC(C[N+](C)(C)C)OC(N)=O (centres unmarked) [bethanechol]
- loss of proliferation in the stomach by Dclk1+ cell ablation [3]: rescue this effect at least in part; also recorded: significantly rescued
- mucosal / intestinal regeneration (DSS-colitis; after ablation of Dclk1+ (tuft) cells, bethanechol in the drinking water): restored; also recorded: improve
- proliferation (DSS-colitis; [11]): improved
- ulcer length (DSS-colitis; [11]): reduction
- DSS colitis (DSS-colitis; bethanechol-treated): Significant improvement
- proliferation (Ki67) (DSS-colitis; mouse, in vivo): increased
- survival ([4]; 15 Gy abdominal irradiation, bethanechol as a single agent immediately before or after the radiation): no significant overall impact
- appearance of the colon after radiation ([4]; both pre- and post-radiation treated mice): almost normal appearing
- improvement of histopathologic score for the colon compared to the controls ([4]; day +4 after radiation, both pre- and post-radiation treated mice): > 65%

Molecule: C[N+](C)(C)CCOC(N)=O [carbachol]
- Ngf expression (gastric organoids [5]; MNU tumor-derived organoids cultured in isolation, day 7): upregulated; also recorded: partly reestablished
- Ngf expression (gastric organoids [5]; gastric organoids from WT mice, carbachol for 7 days): upregulated
- NGF expression (gastric organoids [5]; organoids from M3 Receptor Knockout (M3RKO) mice): no change
- level of phosphorylated YAP ([2]; 1 mM carbachol): reduced
- levels of total YAP ([2]; 1 mM carbachol): no significant changes
- level of phosphorylated YAP [6]: reduced
- NGF expression (human cancer cells): significantly upregulated

Molecule: NC(=O)C(c1ccccc1)(c1ccccc1)[C@@H]1CCN(CCc2ccc3c(c2)CCO3)C1 [darifenacin]
- cellular proliferation of the tumors (INS-GAS mice [7]): reduced
- growth of small cell lung cancer xenografts [8]: inhibit

Molecule: O=C1[O][Pt]2([NH][C@@H]3CCCC[C@H]3[NH]2)[O]C1=O [oxaliplatin]
- tumor size (INS-GAS mice [1]): no effect

Molecule: CC[C@@H]1C(=O)OC[C@@H]1Cc1cncn1C [pilocarpine]
- organoid growth (gastric organoids [9]; relative number of organoids at day 10, 100 μM pilocarpine): stimulated
- expression of Lgr5, Cd44, and Sox9 (gastric organoids [10]; gastric organoids of M3KO mice): no effects
- expression of gastric stem cell markers and Wnt target genes Lgr5, Cd44, and Sox9 (gastric organoids [10]; organoids from WT mice, 10 or 100 μM, day 7, dose-dependent): up-regulation

Molecule: CN1[C@@H]2C[C@@H](OC(=O)[C@H](CO)c3ccccc3)C[C@H]1[C@@H]1O[C@@H]12 [scopolamine]
- stimulatory effect of neuron co-culture on gastric organoid growth (gastric organoids [9]): inhibited

Molecule: NGF: nerve growth factor, used to treat TMK-1 cells
- YAP activation ([2]; TMK-1 cells treated with NGF): did not cause
